Molecules are shown by their SMILES.

Data on ten molecules can be found in publication PMC2635431 (Journal of pharmaceutical sciences, 2009).

For data set [1] the following is noted: experimental, from the literature; cited from earlier work.
Data set [2] can be described thus: Corticosterone solubility in enhancer-PBS solution relative to PBS. To be noted: enhancer concentration of Protocol I, 37°C.
Data set [3] has as its system human epidermal membrane (HEM). Description: Passive transport of corticosterone. It is filed as in vitro ADME. To be noted: CS lipoidal pathway permeability vs PBS control (Eq. 3).
Data set [4] has as its system human epidermal membrane (HEM). Description: Evaluation of direct enhancer treatment time on CS permeability of HEM. The format is in vitro ADME. To be noted: direct treatment 1, 4, 20 min; p > 0.05, t-test.
For data set [5], the system named is human epidermal membrane (HEM). Description: Enhancer depletion and recovery of HEM barrier. It is filed as in vitro ADME. To be noted: Protocol II, enhancer depletion in PBS.

With `COc1ccc(O)c(C(C)(C)C)c1` [BHA, 1,1-Dimethylethyl-4-methoxy phenol], the “log Koct” value in data set [1] is reported as 3.14 ^b^53. In data set [2], the “CS Solubility Ratio (enhancer/PBS solution vs PBS)” value was determined as 1.16 ± 0.03.

In the case of `CCCCCCCCCCCCN1CCCC1=O` [DoP, 1-Dodecyl-2-pyrrolidinone], the “Enhancement Ratio (Emax)” value in data set [3] (Protocol III) amounted to 14 ± 6.

Regarding `CCCCCCCCCCCCCC(=O)OC(C)C` [IPM, Propan-2-yl tetradecanoate], the “Enhancement Ratio (Emax)” value turned out to be 2.8 ± 0.2 in data set [3] (Protocol II) and 3.3 ± 1.1 in data set [3] (Protocol III). Further, the “effect of treatment time on permeability coefficients of CS” value (shortened to “effect of treatment time”) in data set [4] was “did not significantly affect”.

On to `CCCCCCCC/C=C\CCCCCCCCO` [OA, (Z)-Octadec-9-en-1-ol], for which, in data set [3] (Protocol II), the “Enhancement Ratio (Emax)” value was 5.5 ± 1.5. In addition, the “effect of treatment time” value in data set [4] is recorded as “did not significantly affect”.

As to `CCCCCCCCO` [OC, 1-Octanol], the “Enhancement Ratio (Emax)” value in data set [3] (Protocol III) is 18 ± 2. For the same molecule, in data set [5], the “time for HEM permeability to return to the PBS control value” (“time for HEM permeability to return” below) is listed as “approximately 6 h”.

For the molecule `CCCCCCCCN1CCCC1=O` [OP, 1-Octyl-2-pyrrolidinone], in data set [3] (Protocol III), the “Enhancement Ratio (Emax)” value was 16 ± 6. The “time for HEM permeability to return” value in data set [5] is recorded as “approximately 6 h”.

Take `CCCCC(CC)COC(=O)c1ccccc1O` (centres unmarked) [OS, 2-Ethylhexyl 2-hydroxybenzoate]: in data set [3] (Protocol II), the “Enhancement Ratio (Emax)” value is 5.0 ± 3.6. Further, the “effect of treatment time” value in data set [4] was “did not significantly affect”.

On to `CCCCC(CC)COC(=O)c1ccc(N(C)C)cc1` (centres unmarked) [PADO, 2-Ethylhexyl 4-(dimethylamino) benzoate], for which the “Enhancement Ratio (Emax)” value is 4.1 ± 0.7 in data set [3] (Protocol II) and 3.8 ± 1.1 in data set [3] (Protocol III). In addition, the “effect of treatment time” value in data set [4] is on record as “did not significantly affect”.

For the molecule `OCCOc1ccccc1` [PHE, 2-Phenoxy-1-ethanol], the “time for HEM permeability to return” value in data set [5] is “less than 2 h”.

Consider `CCCCCCCCCCCO` [UD, Undecan-1-ol], for which, in data set [3] (Protocol II), the “Enhancement Ratio (Emax)” value came to 17 ± 2. The “effect of treatment time” value in data set [4] was “did not significantly affect”.
